Where two headings read alike, the source gives them in different places. Values belong to the compound of their own block, whether it stands above or below them.
How the values were obtained:
[1] = biological target: T1, recombinant human Lp-PLA2 (Homo sapiens, UniProt Q13093); experiment: Recombinant human Lp-PLA2 assay (rhLp-PLA2, PED6 assay); type: biochemical; details: upper limit for pIC50 in this assay is 9.3
T1 sequence (Q13093 22-441): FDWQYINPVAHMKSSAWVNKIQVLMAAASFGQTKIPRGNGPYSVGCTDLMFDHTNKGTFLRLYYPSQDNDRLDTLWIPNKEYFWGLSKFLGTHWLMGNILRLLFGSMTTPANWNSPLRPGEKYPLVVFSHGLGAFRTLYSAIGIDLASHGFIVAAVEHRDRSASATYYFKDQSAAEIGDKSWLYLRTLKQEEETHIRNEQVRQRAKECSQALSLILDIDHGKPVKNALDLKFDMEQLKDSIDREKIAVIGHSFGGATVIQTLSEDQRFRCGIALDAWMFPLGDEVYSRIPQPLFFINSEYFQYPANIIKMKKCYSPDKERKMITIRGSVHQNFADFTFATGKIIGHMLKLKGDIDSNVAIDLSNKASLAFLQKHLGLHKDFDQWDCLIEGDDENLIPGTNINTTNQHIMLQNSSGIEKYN
Outline: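 Enzyme at 4 nM (or 110 pM) in 50 mM HEPES pH 7.4, 150 mM NaCl, 1 mM CHAPS, preincubated with compound 30 min. PED6 substrate ([…] 5 μM, as printed) then added and reaction run 20 min at room temperature, protected from light. Fluorescence read at ex 480/em 540; pIC50 from curve fitting.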

Lp-PLA2 in human plasma = biological target: T2, Lp-PLA2 in human plasma (Homo sapiens, UniProt Q13093); experiment: Lp-PLA2 human plasma assay (Thio-PAF assay); type: biochemical; details: pooled human plasma; read-out: pIC50 values in the thio-PAF assay (converted)
T2 construct: from tissue; host or cells: pooled human plasma
T2 sequence (Q13093 22-441): T1 sequence (Q13093 22-441)
Outline: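 Pooled human plasma preincubated 30 min with compounds, then given substrate mix of 2.5 mM 2-thio-PAF, […] and 3.2 mM NEM (concentrations in substrate solution) in pH 7.4 HEPES/NaCl/CHAPS buffer. Quenched with TFA after 2 min; CPM-thiol fluorescence read at ex 380/em 485 to give pIC50.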

[2] = test system: proinflammatory (M1) and anti-inflammatory (M2) markers in splenic and CNS infiltrating macrophages; experiment: Ex vivo analysis of M1 and M2 markers in macrophages of EAE rats by realtime PCR; set-up: species or system rat; details: spleen harvested day 13 post MBP-immunization
Experimental: Ex vivo analysis of proinflammatory (M1) and anti-inflammatory (M2) markers in control and compound treated EAE rats. Splenic macrophages were harvested at day 13 post MBP-immunization and assayed for expression of a variety of markers by realtime PCR. CNS infiltrating cells were harvested and macrophages were analyzed for expression of M1 and M2 markers by realtime PCR.

[3] = test system: experimental autoimmune encephalomyelitis (EAE) rats; experiment: Rat experimental autoimmune encephalomyelitis (EAE) model, preventive treatment; type: in vivo
Experimental: A further study was carried out to study the impact of Lp-PLA2 inhibitors on modulating M1/M2 imbalance. In this study, rats were induced to develop experimental autoimmune encephalomyelitis (EAE) by immunization with myelin basic protein (MBP) antigen and treated with a known Lp-PLA2 inhibitor: 5-((9-Methoxy-4-oxo-6,7-dihydro-4H-pyrimido[6,1-a]isoquinolin-2-yl)oxy)-2-(3-(trifluoromethyl)phenoxy)benzonitrile (See PCT application no. PCT/CN2011/001597). In this preventive treatment model, the compound was administered at day 0 (day of immunization) and continued to administer until day 22. The study lasted for 25 days. Rats were subsequently monitored for symptoms of EAE. Rats were immunized with MBP to develop EAE and symptoms were monitored daily. Plasma Lp-PLA2 activity, OxLDL, and LysoPC concentration were determined at different time points through the course of EAE.

[4] = read-out: pIC50 values in the PED6 assay (converted)
[5] = Table 1, read-out: rhLp-PLA2 (PED6 assay) (pIC50) (converted)

SMILES: O=c1nc(OCc2cc(F)c(F)c(F)c2)cc2n1CCCN2 [Example 113, 8-(3,4,5-trifluorobenzyloxy)-3,4-dihydro-1H-pyrimido[1,6-a]pyrimidin-6(2H)-one]
IC50 [1, 4]: ≤ 10 nM
IC50 (Lp-PLA2 in human plasma): ≤ 100 nM

SMILES: COc1ccc2c(c1)CCn1c-2cc(Oc2ccc(Oc3cccc(C(F)(F)F)c3)c(C#N)c2)nc1=O [5-((9-Methoxy-4-oxo-6,7-dihydro-4H-pyrimido[6,1-a]isoquinolin-2-yl)oxy)-2-(3-(trifluoromethyl)phenoxy)benzonitrile]
M1 markers expression [2]: decrease in M1 markers
M2 markers expression [2]: increase in M2 markers
LysoPC levels ([3]; rat EAE plasma): decreased
plasma Lp-PLA2 activity ([3]; rat EAE plasma): decreased Lp-PLA2 activity
clinical disease ([3]; rat EAE, MBP immunization, compound administered day 0 to day 22): reduction in clinical disease

SMILES: CC(C)N1CCCn2c1cc(OCc1cc(F)c(F)c(F)c1)nc2=O [Example 42, isopropyl-8-((3,4,5-trifluorobenzyl)oxy)-3,4-dihydro-1H-pyrimido[1,6-a]pyrimidin-6(2H)-one]
IC50 [1, 5]: 5.01 nM
IC50 [1, 4]: ≤ 10 nM
IC50 (Lp-PLA2 in human plasma): ≤ 100 nM

SMILES: O=c1nc(OCc2cc(F)c(Oc3ccc(F)c(F)c3)c(F)c2)cc2n1CCCN2 [Example 91, 8-((4-(3,4-difluorophenoxy)-3,5-difluorobenzyl)oxy)-3,4-dihydro-1H-pyrimido[1,6-a]pyrimidin-6(2H)-one]
IC50 [1, 4]: ≤ 1 nM
IC50 (Lp-PLA2 in human plasma): ≤ 100 nM

SMILES: CN1CCCn2c1cc(OCc1ccc(Oc3ccc(F)c(F)c3)c(C#N)c1)nc2=O [Example 34, 2-(3,4-difluorophenoxy)-5-(((1-methyl-6-oxo-2,3,4,6-tetrahydro-1H-pyrimido[1,6-a]pyrimidin-8-yl)oxy)methyl)benzonitrile]
IC50 [1, 4]: ≤ 10 nM
IC50 (Lp-PLA2 in human plasma): ≤ 100 nM

SMILES: CN1CCCn2c1cc(OCc1ccc(Oc3cccc(F)c3)c(F)c1)nc2=O [Example 25, 8-((3-fluoro-4-(3-fluorophenoxy)benzyl)oxy)-1-methyl-3,4-dihydro-1H-pyrimido[1,6-a]pyrimidin-6(2H)-one]
IC50 [1, 4]: ≤ 10 nM
IC50 (Lp-PLA2 in human plasma): ≤ 1000 nM

SMILES: CC(C)N1CCCn2c1cc(OCc1ccc(F)c(F)c1)nc2=O [Example 40, 8-((3,4-difluorobenzyl)oxy)-1-isopropyl-3,4-dihydro-1H-pyrimido[1,6-a]pyrimidin-6(2H)-one]
IC50 [1, 5]: 10 nM
IC50 [1, 4]: ≤ 10 nM
IC50 (Lp-PLA2 in human plasma): ≤ 100 nM

SMILES: CN1CCCn2c1cc(OCc1cc(F)c(F)c(F)c1)nc2=O [Example 21, 1-methyl-8-((3,4,5-trifluorobenzyl)oxy)-3,4-dihydro-1H-pyrimido[1,6-a]pyrimidin-6(2H)-one]
IC50 [1, 5]: 2 nM
IC50 [1, 4]: ≤ 10 nM
IC50 (Lp-PLA2 in human plasma): ≤ 100 nM

SMILES: CN1CCCn2c1cc(OCc1cc(F)c(Oc3cccc(C(F)(F)F)c3)c(F)c1)nc2=O [Example 81, 8-((3,5-difluoro-4-(3-(trifluoromethyl)phenoxy)benzyl)oxy)-1-methyl-3,4-dihydro-1H-pyrimido[1,6-a]pyrimidin-6(2H)-one]
IC50 [1, 4]: ≤ 1 nM
IC50 (Lp-PLA2 in human plasma): ≤ 100 nM

SMILES: O=c1nc(OCc2ccc(Oc3cccc(C(F)(F)F)c3)c(F)c2)cc2n1CCCN2 [Example 101, 8-((3-fluoro-4-(3-(trifluoromethyl)phenoxy)benzyl)oxy)-3,4-dihydro-1H-pyrimido[1,6-a]pyrimidin-6(2H)-one]
IC50 [1, 4]: ≤ 1 nM
IC50 (Lp-PLA2 in human plasma): ≤ 100 nM

SMILES: O=c1nc(OCc2ccc(Oc3ccc(F)c(C(F)(F)F)c3)cc2)cc2n1CCCN2 [Example 100, 8-((4-(4-fluoro-3-(trifluoromethyl)phenoxy)benzyl)oxy)-3,4-dihydro-1H-pyrimido[1,6-a]pyrimidin-6(2H)-one]
IC50 [1, 4]: ≤ 1 nM
IC50 (Lp-PLA2 in human plasma): ≤ 100 nM

Further lines, results first:

IC50 [1, 4]: ≤ 1 nM
IC50 (Lp-PLA2 in human plasma): ≤ 100 nM
SMILES: CN1CCCn2c1cc(OCc1ccc(Oc3ccc(F)c(Cl)c3)c(C#N)c1)nc2=O [Example 84, 2-(3-chloro-4-fluorophenoxy)-5-(((1-methyl-6-oxo-2,3,4,6-tetrahydro-1H-pyrimido[1,6-a]pyrimidin-8-yl)oxy)methyl)benzonitrile]

IC50 [1, 5]: < 0.501 nM
IC50 [1, 4]: ≤ 1 nM
IC50 (Lp-PLA2 in human plasma): ≤ 100 nM
SMILES: CN1CCCn2c1cc(OCc1cc(F)c(Oc3ccc(F)c(Cl)c3)c(F)c1)nc2=O [Example 83, 8-((4-(3-chloro-4-fluorophenoxy)-3,5-difluorobenzyl)oxy)-1-methyl-3,4-dihydro-1H-pyrimido[1,6-a]pyrimidin-6(2H)-one]

IC50 [1, 5]: 1 nM
IC50 [1, 4]: ≤ 1 nM
IC50 (Lp-PLA2 in human plasma): ≤ 100 nM
SMILES: CN1CCCn2c1cc(OCc1cc(F)c(Oc3ccc(C(F)(F)F)nc3)c(F)c1)nc2=O [Example 3, 8-((3,5-difluoro-4-((6-(trifluoromethyl)pyridin-3-yl)oxy)benzyl)oxy)-1-methyl-3,4-dihydro-1H-pyrimido[1,6-a]pyrimidin-6(2H)-one]

IC50 [1, 4]: ≤ 10 nM
IC50 (Lp-PLA2 in human plasma): ≤ 100 nM
SMILES: CN1CCCn2c1cc(OCc1ccc(Oc3ccc(C(F)(F)F)nc3)c(F)c1)nc2=O [Example 4, 8-((3-fluoro-4-((6-(trifluoromethyl)pyridin-3-yl)oxy)benzyl)oxy)-1-methyl-3,4-dihydro-1H-pyrimido[1,6-a]pyrimidin-6(2H)-one]

IC50 [1, 4]: ≤ 10 nM
IC50 (Lp-PLA2 in human plasma): ≤ 100 nM
SMILES: CN1CCCn2c1cc(OCc1ccc(Oc3ccc(F)c(Cl)c3)c(F)c1)nc2=O [Example 15, 8-((4-(3-chloro-4-fluorophenoxy)-3-fluorobenzyl)oxy)-1-methyl-3,4-dihydro-1H-pyrimido[1,6-a]pyrimidin-6(2H)-one]

IC50 [1, 4]: ≤ 10 nM
IC50 (Lp-PLA2 in human plasma): ≤ 100 nM
SMILES: CN1CCCn2c1cc(OCc1ccc(Oc3cccc(Cl)c3)c(F)c1)nc2=O [Example 16, 8-((4-(3-chlorophenoxy)-3-fluorobenzyl)oxy)-1-methyl-3,4-dihydro-1H-pyrimido[1,6-a]pyrimidin-6(2H)-one]

IC50 [1, 4]: ≤ 10 nM
IC50 (Lp-PLA2 in human plasma): ≤ 1000 nM
SMILES: CN1CCCn2c1cc(OCCc1ccc(Oc3ccc(C(F)(F)F)c(Cl)c3)cn1)nc2=O [Example 54, 8-(2-(5-(3-chloro-4-(trifluoromethyl)phenoxy)pyridin-2-yl)ethoxy)-1-methyl-3,4-dihydro-1H-pyrimido[1,6-a]pyrimidin-6(2H)-one]

IC50 [1, 4]: ≤ 10 nM
IC50 (Lp-PLA2 in human plasma): ≤ 1000 nM
SMILES: CN1CCCn2c1cc(OCc1ccc(Oc3ccc(F)cc3)c(F)c1)nc2=O [Example 74, 8-((3-fluoro-4-(4-fluorophenoxy)benzyl)oxy)-1-methyl-3,4-dihydro-1H-pyrimido[1,6-a]pyrimidin-6(2H)-one]

From US20130030012A1, “COMPOUNDS” (Glaxo Group Limited, priority 2011, published 2013)
